One assay relates to human tumor cells. Description: Oxidizing agents found toxic to human tumor cells. In kind it is cell-based.
A further assay has as its system prostate cancer. Description: Six month study of P.S.A. levels in prostate cancer patients: glyceraldehyde, Glycosole and the combination. Details: key to Patient dead (#): # Dead; P.S.A. Levels during 6 month from initiation of treatment, 1 mo. / P.S.A. Levels during 6 month from initiation of treatment, 2 mo. / P.S.A. Levels during 6 month from initiation of treatment, 3 mo. / P.S.A. Levels during 6 month from initiation of treatment, 4 mo. / P.S.A. Levels during 6 month from initiation of treatment, 5 mo. / P.S.A. Levels during 6 month from initiation of treatment, 6 mo.: unit not given here. In kind it is in vivo, human. The method, then:
A six month study was conducted comparing the anti-cancer effect of Glycosole (Glyc., the glucuronide of para-methoxy-phenol), glyceraldehyde, and a combination of the two compounds. These compounds were administered to patients suffering from prostate cancer separately and together. All of the patients suffered from bone metastases and no longer responded to conventional hormone therapy. Patients were administered either 3 grams glyceraldehyde per day, 6 grams per day of Glycosole, or a combination of both agents.

The test system of another assay is cancer cells. Description: Toxicity to cancer cells in vitro relative to para-methoxy phenol. The class given is cell-based. The note with it: compared with para-methoxy phenol.
Assay [1] has as its system localized malignant melanomas. The following applies: cited from earlier work.

Where “and” joins values, the source holds several entries; their conditions need not be identical. Equal entries are not always repeated.

As for `CCC(C)(C)c1ccc(O)cc1` [4-tert-amyl phenol], the “Toxicity to human tumor cells” value in the assay on human tumor cells is “toxic to human tumor cells”.

Turning to `N[C@@H](Cc1ccc(O)cc1)C(=O)O` [tyrosine], in the assay with human tumor cells, the “Toxicity to human tumor cells” value is listed as “toxic to human tumor cells”.

In the case of `COC(=O)c1cc(O)c(O)c(O)c1` [methyl gallate], the “Toxicity to human tumor cells” value in the assay with human tumor cells is “toxic to human tumor cells”.

As to `Oc1cccc(O)c1` [resorcinol], in the assay with human tumor cells, the “Toxicity to human tumor cells” value is listed as “toxic to human tumor cells”.

On to `COc1ccc(O)c(C(C)(C)C)c1` [butylated hydroxyanisole], for which, in the assay on human tumor cells, the “Toxicity to human tumor cells” value is “toxic to human tumor cells”.

`O=CC(O)CO` (stereo not shown) [Glycer Aldehyde, glyceraldehyde]: the “P.S.A. Levels during 6 month from initiation of treatment, 1 mo.” value in the assay on prostate cancer (1 mo., single patients, bone metastases, glyceraldehyde 3 g/day, Glycosole 6 g/day or both) was 760 and 190 and 2250 and 340 and 910 and 150. Further, the “P.S.A. Levels during 6 month from initiation of treatment, 2 mo.” value in the assay on prostate cancer (2 mo., single patients, glyceraldehyde 3 g/day, Glycosole 6 g/day or both) is 680 and 180 and 1100 and 380 and 850 and 90. The “P.S.A. Levels during 6 month from initiation of treatment, 3 mo.” value in the assay with prostate cancer (3 mo., single patients, glyceraldehyde 3 g/day, Glycosole 6 g/day or both) was 600 and 150 and 1000 and 310 and 740 and 80. The “P.S.A. Levels during 6 month from initiation of treatment, 4 mo.” value with prostate cancer (4 mo., single patients, glyceraldehyde 3 g/day, Glycosole 6 g/day or both) is 580 and 145 and 980 and 280 and 760 and 80. For the same compound, the “P.S.A. Levels during 6 month from initiation of treatment, 5 mo.” value in the assay on prostate cancer (5 mo., single patients, glyceraldehyde 3 g/day, Glycosole 6 g/day or both) is 540 and 140 and 220 and 680 and 64. Also, the “P.S.A. Levels during 6 month from initiation of treatment, 6 mo.” value in the assay with prostate cancer (6 mo., single patients, glyceraldehyde 3 g/day, Glycosole 6 g/day or both) is 420 and 100 and 180 and 360 and 60. The “P.S.A. Levels during 6 month from initiation of treatment, 10 mo.” value in the assay on prostate cancer (10 mo., single patients) is 380 and 480 and 600. Further, the “P.S.A. Levels during 6 month from initiation of treatment, 11 mo.” value in the assay with prostate cancer (11 mo., single patients) was 920 and 700. Besides, the “P.S.A. Levels during 6 month from initiation of treatment, 12 mo.” value with prostate cancer (12 mo., single patients) came to 846. Moreover, the “Patient dead (#)” value in the assay on prostate cancer (marked in column 5 mo.), with prostate cancer (marked in column 11 mo.) and in the assay on prostate cancer (marked in column 12 mo.) was “#” throughout. Besides, the “Response of patients to the treatment” value with prostate cancer (prostate cancer with bone metastases, 3 grams glyceraldehyde per day, 6 grams per day of Glycosole, or both) is “None of the patients administered glyceraldehyde alone responded”.

With `N[C@@H](Cc1ccc(O)c(O)c1)C(=O)O` [L-3,4-dihydroxyphenylalanine], the “Toxicity to human tumor cells” value with human tumor cells was “toxic to human tumor cells”.

Turning to `N[C@@H](Cc1cc(O)c(O)cc1O)C(=O)O` [6-hydroxydopa, 3,4,6-trihydroxyphenylalanine], the “Toxicity to human tumor cells” value in the assay on human tumor cells is given as “toxic to human tumor cells”.

Take `NCCc1ccc(O)c(O)c1` [dopamine, 3,4-dihydroxyphenethylanine]: the “Toxicity to human tumor cells” value in the assay on human tumor cells was “toxic to human tumor cells”.

For the compound `CCC(C)(C)c1ccc(O[C@@H]2O[C@H](C(=O)O)[C@@H](O)[C@H](O)[C@H]2O)cc1` [4-tert-amyl phenyl glucuronide], the “Toxicity to cancer cells in vitro relative to para-methoxy phenol” value in the assay with cancer cells is 5.5 times.

Regarding `Oc1ccc(O)cc1` [hydroquinone], the “Toxicity to human tumor cells” value in the assay on human tumor cells is recorded as “toxic to human tumor cells”.

Take 4-benzomethoxy phenol: the “Toxicity to human tumor cells” value with human tumor cells was “toxic to human tumor cells”.

Turning to `COc1ccc(O)cc1` [4-hydroxyanisole], the “Toxicity to human tumor cells” value with human tumor cells is “toxic to human tumor cells”. The “Effect on localized malignant melanomas” value in assay [1] (intra-arterial infusion) is “underwent regression”. In assay [1] (intravenous administration), the “Therapeutic effect in malignant melanoma” value is given as “not therapeutically effective”.

Regarding `CCCOc1ccc(O)cc1` [4-propoxy phenol], the “Toxicity to human tumor cells” value in the assay on human tumor cells is given as “toxic to human tumor cells”.

The values above are taken from US6407071B1, “Method and composition for treating malignant cells” (Co-Enzyme Technology Ltd., priority 1998, dated 2002).
